Source: patent EP4744665A1, “COMBINATION OF POLQ INHIBITOR COMPOUND AND ANTI-CANCER THERAPEUTIC AGENT OR RADIOTHERAPY” (Simcere Zaiming Pharmaceutical Co., Ltd., priority 2023, dated 2025)

Legend:
[1] = biological target: T1, N-terminal active peptide segment of POLQ with ATPase activity (M1-N899) (Homo sapiens, UniProt O75417); test: POLQ enzyme activity inhibition experiment (ATPase, NADH oxidation-coupled, OD 340 nm); type: biochemical
T1 construct: N-terminal active peptide segment of POLQ with ATPase activity (M1-N899)
T1 sequence (O75417 1-899): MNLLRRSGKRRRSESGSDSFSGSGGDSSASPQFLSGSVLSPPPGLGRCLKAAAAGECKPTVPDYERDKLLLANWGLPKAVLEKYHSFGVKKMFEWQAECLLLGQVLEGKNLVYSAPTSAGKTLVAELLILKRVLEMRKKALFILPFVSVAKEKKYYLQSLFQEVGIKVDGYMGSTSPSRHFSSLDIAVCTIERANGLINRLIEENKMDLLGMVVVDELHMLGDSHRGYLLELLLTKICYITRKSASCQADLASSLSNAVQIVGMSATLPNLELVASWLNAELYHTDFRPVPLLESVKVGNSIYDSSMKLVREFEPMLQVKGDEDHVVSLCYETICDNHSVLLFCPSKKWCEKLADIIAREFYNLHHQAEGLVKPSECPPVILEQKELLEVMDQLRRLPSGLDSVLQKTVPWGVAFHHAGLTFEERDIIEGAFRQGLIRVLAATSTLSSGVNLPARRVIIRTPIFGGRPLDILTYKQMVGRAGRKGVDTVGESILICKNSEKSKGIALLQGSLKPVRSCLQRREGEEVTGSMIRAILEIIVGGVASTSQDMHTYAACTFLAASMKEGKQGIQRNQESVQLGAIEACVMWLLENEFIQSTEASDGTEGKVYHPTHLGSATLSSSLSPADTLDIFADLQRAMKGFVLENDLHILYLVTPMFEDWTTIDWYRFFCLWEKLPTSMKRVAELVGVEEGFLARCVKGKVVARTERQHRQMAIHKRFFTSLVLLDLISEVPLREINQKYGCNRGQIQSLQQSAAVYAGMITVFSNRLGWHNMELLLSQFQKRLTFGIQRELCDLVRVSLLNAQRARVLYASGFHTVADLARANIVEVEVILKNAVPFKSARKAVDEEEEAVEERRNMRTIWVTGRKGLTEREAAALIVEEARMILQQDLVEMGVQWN
Procedure: Brief introduction to experimental principle: After the N-terminal active peptide segment of POLQ with ATPase activity (M1-N899) is co-incubated with the compound, this peptide segment reacts with substrate dT50 under the action of ATP to generate ADP. The generated ADP then participates in the subsequent NADH oxidation-coupled enzymatic reaction, catalyzing the conversion of NADH to NAD^+. The reduction in the OD value of NADH at 340 nm was measured using the Envision microplate reader from Perkin Elmer to reflect enzyme activity. Experimental instruments: Labcyte Echo 650 pipetting system; Perkin Elmer Envision microplate reader; Eppendorf 5810R centrifuge; Boxun BSD-YX3400 thermostatic shaker.
Experimental methods: The POLQ enzyme was diluted to 100 nM with a reaction buffer (20 mM Tris HCl (pH 7.80), 80 mM KCl, 10 mM MgCl2, 1 mM DTT, 0.01% w/v bovine serum albumin, 0.01% v/v Tween-20, 5% v/v glycerol). The test compound was diluted to different concentrations with dimethyl sulfoxide (DMSO) using an Echo 650 pipetting system and transferred to a 384-well plate, 20 µL/well of 100 nM POLQ was added, and the mixture was incubated at room temperature for 15 min. A reaction mixture solution was prepared with the concentrations of each component in the reaction mixture solution as follows: 100 µM ATP, 300 nM dT50, 300 µM NADH, 6 mM PEP, 10 U/mL lactate dehydrogenase, and 20 U/mL pyruvate kinase. 20 µL/well of the reaction mixture solution was added to start the enzyme reaction. In the reaction system, the compound was serially diluted 3-fold from the final concentration of 10 µM, covering a concentration range from 10 µM to 0.0005 µM, and the final concentration of DMSO in the system was 0.2% v/v. After the 384-well plate was reacted at room temperature for 20 min, the OD value at 340 nm was read using an Envision microplate reader.
(§1) Inhibition rates were calculated and fitted using XLfit software to give the IC50 of the compound.
A blank group and a DMSO group were set in the experiment. […]

[2] = test system: DLD-1 BRCA2 (-/-) cell line; test: Inhibition of tumor cell proliferation, 7 days, CTG; type: cell-based; details: Homo sapiens, DLD-1, 168 h, 7 days incubation
Procedure: (§2) Brief introduction to experimental principle: After the compound was co-incubated with tumor cells for 7 days, the ATP in viable cells was quantified using the CTG kit from Promega to reflect the effect of the compound on tumor cell proliferation.
(§3) Experimental methods: DLD-1 parent cells or DLD-1 BRCA2 (-/-) cells were diluted with an RPMI 1640 medium containing 10% FBS and then added to a 96-well plate (90 µL/well), with the number of cells being 600/well or 1200/well, respectively, and incubated overnight in an incubator at 37 °C with 5% CO2. The test compound was diluted to different concentrations with dimethyl sulfoxide (DMSO) and then added to a 96-well plate, such that, in the reaction system, the compound was serially diluted 4-fold from the final concentration of 25 µM. The concentration range of the compound was from 25 µM to 0.0004 µM, and the final concentration of DMSO was 0.25% v/v. After incubation for 7 days, 50 µL/well of CTG was added, and the mixture was incubated at room temperature for 10 min. The luminescence (Lum) signal value was read using an Envision microplate reader, and the inhibition rate and half inhibitory concentration (IC50) were calculated.
as §1
(§4) A Blank well and a DMSO well were set in the experiment. The blank well contained 100 µL of an RPMI Medium 1640 medium containing 10% FBS, and the inhibition rate of the compound on tumor cell growth was considered to be 100% under this condition. For the DMSO well, 0.25% v/v DMSO was added to the cell-containing well, and the inhibition rate of the compound on tumor cell growth was considered to be 0 under this condition. Inhibition rate = 100 × (Lummax−Lumcompound)/(Lummax−Lummin)% [formula] wherein Lummax refers to the luminescence signal value of the well containing cells and 0.25% v/v DMSO, and Lumcompound refers to the luminescence signal value of the well containing the compound and cells. Lummin refers to the luminescence signal value of the well containing the medium and 0.25% v/v DMSO.

DLD-1 parent cells = test: as above; type: cell-based; details: Homo sapiens, DLD-1, 168 h, 7 days incubation
Procedure: as §2, §3, §1, §4

DLD-1 BRCA2 (-/-) = test: Combined use with combination drug, matrix study, Bliss Independence model (Cell Titer Glo, 7 days); type: cell-based; details: combination with Olaparib (PARP inhibitor)
Procedure: (§5) DLD-1 colorectal adenocarcinoma cells, DLD-1 BRCA2 (-/-) colorectal adenocarcinoma cells, SHP-77 human small cell lung cancer cells, NCI-H82 human small cell lung cancer cells, LNCAP prostate cancer cells, KURAMOCHI human ovarian cancer cells, A2780 human ovarian cancer cells, and NCI-H23 non-small cell lung cancer cells were cultured in a 1640 medium containing 10% fetal bovine serum. SKOV3 human ovarian cancer cells were cultured in a McCoy's 5A (modified) medium containing 10% fetal bovine serum. OVCAR3 ovarian cancer cells were cultured in a 1640 medium containing 20% fetal bovine serum and 10 µg/mL bovine insulin. MDA-MB-436 breast cancer cells (natural BRCA1 mutation) and A549 non-small cell lung cancer cells were cultured in a DMEM medium containing 10% fetal bovine serum. Capan-1 human pancreatic cancer cells (natural BRCA2 mutation) were cultured in an IMDM medium containing 20% fetal bovine serum. The cells were all cultured at 37 °C with 5% CO2. Cells at the logarithmic growth phase were available for the experiment.
(§6) 100 µL of the cell medium was added to rows A and H and columns 1 and 12 of a 96-well cell culture plate. Cultured cells were resuspended (adherent cells were digested with trypsin) and counted to give information on cell density and viability. The dilution ratio of the resuspended cells required for inoculating a fixed number of cells into 80 µL of the medium in each culture well was calculated based on the cell density information. After the resuspended cells were diluted with the corresponding medium, 80 µL of the diluted cells were transferred to columns 2-11 of rows B-G of a 96-well cell culture plate using an Eppendorf multi-channel pipette (60 wells in total for each plate). The cell culture plate was incubated overnight in an incubator at 37 °C with 5% CO2.
(§7) The test compound and the combination compound were dissolved in DMSO to give a 10 mM solution for later use. In the experiment, the compound was further diluted to the corresponding concentration according to the concentration designed in the experiment, and based on this concentration, serial gradient dilution was performed. Matrix study was performed at 8 or 7 dose concentrations of the test compound (the lowest dose concentration was 0, and other specific concentration values were shown in FIG. 1) and 7 or 8 dose concentrations of the combination compound (the lowest dose concentration was 0, and other specific concentration values were shown in FIG. 1). 10 µL of each of the diluted combination compound and test compound was added to the corresponding cell plate well, such that the final concentration of DMSO was 0.25%. The test compound and the cells were incubated in an incubator at 37 °C with 5% CO2 for another 7 days, Cell Titer Glo was added at 50 µL/well, and the luminescence value of each well was read using an Envision microplate reader.
(§8) The luminescence value of the well containing only the cell medium was taken as the background (RLUbackground, corresponding cell survival rate to be 0%), the cell well containing only 0.25% DMSO without the compound was taken as the maximum signal (RLUDMSO, corresponding cell survival rate to be 100%), and the luminescence values of the remaining wells containing cells and compounds at different concentrations were taken as RLUsample. The survival rate of each cell well was calculated as follows: Survival rate (%) = (RLUsample−RLUbackground)/(RLUDMSO−RLUbackground) × 100% [formula]
(§9) The interaction between drugs (synergistic, independent, or antagonistic) was statistically analyzed by the Bliss Independence model using Combenefit software (Bliss, C.I., Bacteriol. Rev., 1956, 20, 243-258). The model assumes that each drug acts independently. The theoretical expected action curve of the combination was calculated from the following equation: Bliss effect = effect A + effect B−effect A × effect B [formula] wherein effect A and effect B are the effects of drugs A and B alone at specific concentrations. […]

MDA-MB-436 = test: as above; type: cell-based; details: combination with Niraparib (PARP inhibitor)
Procedure: as §5, §6, §7, §8, §9

IC50 [1]	IC50 [2]	SMILES	IC50 (DLD-1 parent cells)	Combined effect (DLD-1 BRCA2 (-/-))	Combined effect (MDA-MB-436)
< 100 nM	< 200 nM	COc1cnc(C)cc1-c1cc(C)ncc1C(=O)Nc1nc2ncc(-c3ccc(C#N)cc3)nc2s1 [Compound II, N-(6-(4-Cyanophenyl)thiazolo[4,5-b]pyrazin-2-yl)-5'-methoxy-2',6-dimethyl-[4,4'-bipyridinyl]-3-carboxamide]	≥ 10000 nM	Synergistic	Synergistic
< 100 nM	< 200 nM	COc1ccc(Cl)cc1-c1cc(C)ncc1C(=O)Nc1nc2ncc(-c3ccc(C4CC4)cn3)nc2s1 [Compound III, 4-(5-Chloro-2-methoxyphenyl)-N-[6-(5-cyclopropylpyridin-2-yl)thiazolo[4,5-b]pyrazin-2-yl]-6-methylpyridine-3-carboxamide]		Synergistic	

SMILES	IC50 [1]	IC50 [2]	IC50 (DLD-1 parent cells)	Combined effect (DLD-1 BRCA2 (-/-))	Combined effect (MDA-MB-436)
COc1ccc(Cl)cc1-c1cc(C)ncc1C(=O)Nc1nc2ncc(-c3ccc(C#N)cc3)nc2s1 [Compound I, 4-(5-Chloro-2-methoxyphenyl)-N-[6-(4-cyanophenyl)thiazolo[4,5-b]pyrazin-2-yl]-6-methylnicotinamide]	< 100 nM	< 200 nM	≥ 10000 nM	Synergistic	Synergistic
